Data as given in publication PMC10688034 (ACS Omega, 2023).

Assays:
SARS-CoV-2 [1] = type: cell-based
Vero E6 cells = details: MTT, within the concentration range tested (1-80 μM)
in vitro = details: African green monkey
SARS-CoV-2 [2] = type: cell-based; details: Calu-3, independently of the time of administration
[3] = cited from earlier work
Calu-3 cells = details: MTT

Row | Structure (SMILES) | LR (reduction of viral load) (SARS-CoV-2 [1]) [log] | cytotoxicity (in words) (Vero E6 cells) | IC50 (in vitro) [µM] | effect on viral replication (in words) (SARS-CoV-2 [2]) | decomposition in cell culture medium after 6 h [3] | cytotoxicity (in words) (Calu-3 cells; concentration up to 20 μM) | cell viability at the higher concentrations tested (in words) (Calu-3 cells; concentrations above 20 μM)
1 | C[C@H](CCC(=O)O)[C@H]1CC[C@H]2[C@@H]3[C@@H](O)C[C@@H]4C[C@H](O)CC[C@]4(C)[C@H]3CC[C@]12C [UDCA, ursodeoxycholic acid] | < 1 | noncytotoxic |  |  |  |  | 
2 | C[C@H]1[C@@H](O)O[C@@H]2O[C@@]3(C)CC[C@H]4[C@H](C)CC[C@@H]1[C@@]24OO3 [DHA, dihydroartemisinin] | < 1 |  | 21.6 | slightly interfere with viral replication | up to 70% | noncytotoxic | slightly altering cell viability
